Consider 11 molecules from patent publication US10736932B2, “Small molecule Ras inhibitors” (Ohio State Innovation Foundation, priority 2014, dated 2020).

Molecules are shown by their SMILES. Where two headings read alike, the source gives them in different places. Square brackets hold non-standard residues; d marks the D form. Side chains are listed from the residue outwards. Peptide text beside a SMILES is read from it. * marks the point of attachment. Lys(5-FITC)NH2 = NC(=O)[C@H](CCCCNC(=S)Nc1ccc2c(c1)C(=O)OC21c2ccc(O)cc2Oc2cc(O)ccc21)N*; FITC = O=C1OC2(c3ccc(O)cc3Oc3cc(O)ccc32)c2ccc(NC(=S)*)cc21; Phe(4-Cl) = N[C@@H](Cc1ccc(Cl)cc1)C(=O)O; Phe(4-F) = N[C@@H](Cc1ccc(F)cc1)C(=O)O; 2Nal = N[C@@H](Cc1ccc2ccccc2c1)C(=O)O; d2Nal = N[C@H](Cc1ccc2ccccc2c1)C(=O)O; Benzoyl(3-Br) = O=C(c1cccc(Br)c1)*; Tle = CC(C)(C)[C@H](N)C(=O)O; dNle = CCCC[C@@H](N)C(=O)O; X4 = O=C(c1ccc(Cl)nc1)*; Dap = NC[C@H](N)C(=O)O

One test concerns the target T1, K-Ras(G12V) (Homo sapiens, UniProt P01116, G12V).
T1 construct: The G12V mutant K-Ras (amino acids 1-185) was recombinantly fused; GST (N, cleaved yes); made in house; host or cells: Escherichia coli BL21
Put plainly: Fluorescence anisotropy (FA) binding of FITC-labeled cyclic peptides to K-Ras.

Test [1] addresses T2, K-Ras / Raf RBD interaction (Homo sapiens, UniProt P01116, G12V).
T2 construct: The G12V mutant K-Ras (amino acids 1-185) was recombinantly fused; GST (N, cleaved yes); made in house; host or cells: Escherichia coli BL21
Briefly: HTRF assay, inhibition of Ras-Raf RBD interaction.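 Also: HTRF signal read after overnight incubation of the assay plate at 4 °C.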 Format: binding. (In general: Time-resolved FRET reads energy transfer from a long-lived donor to a nearby acceptor.)
Description: Recombinant HA-tagged K-Ras (no GST, 50 nM), GST-Raf RBD (50 nM each), a monoclonal anti-HA antibody labeled with acceptor d2 (2 μg/mL), a monoclonal anti-GST antibody labeled with donor Tb (0.25 μg/mL) (Cisbio), and increasing concentrations of cyclic peptide (0-20 μM) were mixed inPBS (total volume of 20 μL) in a 384-well plate. The plate was incubated overnight at 4° C. and the HTRF signal was measured on a Molecular Devices Spectramax M5 or a Tecan infinite M1000 Pro plate reader. The data were analyzed by Prism 6.0 from Graphpad Software, Inc. (La Jolla, Calif.) and IC50 values were obtained by fitting the data to dose-response-inhibition curve.

The mark [2] stands for this setting: Table 2, FITC-labeled peptide, read-out: Binding affinity KD.

T2 sequence (P01116 1-185 isoform P01116-2 G12V): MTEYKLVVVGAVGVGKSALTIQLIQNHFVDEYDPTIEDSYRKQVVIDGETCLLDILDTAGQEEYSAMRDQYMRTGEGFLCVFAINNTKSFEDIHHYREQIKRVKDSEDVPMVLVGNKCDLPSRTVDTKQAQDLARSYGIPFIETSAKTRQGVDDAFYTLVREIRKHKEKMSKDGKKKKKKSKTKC
T1 sequence (P01116 1-185 isoform P01116-2 G12V): as above
Description for K-Ras(G12V): The 13 hits were resynthesized, labeled with fluorescein isothiocyanate (FITC), purified by HPLC, and tested for binding to K-Ras by fluorescence anisotropy (FA).
For cyclic peptides derived from single library beads (library screening), K-Ras protein (non-GST fusion, 0-20 μM) was incubated with the TMR-labeled peptide (50 or 100 nM) in 20 μL of the blocking buffer for 2.5 h at 24° C. The FA values were measured on a Molecular Devices Spectramax M5 spectrofluorimeter, with excitation and emission wavelengths at 545 and 585 nm, respectively. Equilibrium dissociation constants (KD) were determined by plotting the FA values as a function of K-Ras concentration and fitting the data to the equation
[formula] where Y is the measured anisotropy at a given K-Ras concentration x; L is the peptide concentration; Qb/Qf is the correction fact for dye-protein interaction; Amax is the maximum anisotropy at saturating K-Ras concentration; and Amin is the minimum anisotropy. FA analyses with resynthesized FITC-labeled peptides were similarly carried out, except that the excitation and emission wavelengths were at 494 and 520 nm, respectively.

As for `CC(C)[C@H]1NC(=O)[C@H](Cc2ccc(F)cc2)NC(=O)[C@H](Cc2ccc(O)cc2)NC(=O)[C@H](CCCNC(=N)N)NC(=O)[C@H](Cc2ccc(F)cc2)NC(=O)[C@H](CCCNC(=N)N)NC(=O)[C@@H](Cc2ccc3ccccc3c2)NC(=O)[C@H](CCCNC(=N)N)NC(=O)[C@H](CCCNC(=N)N)NC(=O)[C@H](CCC(=O)N[C@@H](CCCCNC(=S)Nc2ccc3c(c2)C(=O)OC32c3ccc(O)cc3Oc3cc(O)ccc32)C(N)=O)NC1=O` [Cyclorasin 1A, (Arg-Arg-nal-Arg-Fpa-Arg-Tyr-Fpa-val-Gln)] (cyclo(RR[d2Nal]R[Phe(4-F)]RY[Phe(4-F)][dV]E(Lys(5-FITC)NH2))), on K-Ras(G12V) (Table 1, resynthesized FITC-labeled peptides, FA, K-Ras, read-out: KD), the Kd was greater than 10000 nM.
As for `C[C@H]1NC(=O)[C@H](C(C)(C)C)NC(=O)[C@H](Cc2c[nH]c3ccccc23)NC(=O)[C@H](CCC(N)=O)NC(=O)[C@@H](CCCCNC(=O)c2ccc(Cl)nc2)NC(=O)[C@H](Cc2ccc(F)cc2)NC(=O)[C@H](CCCNC(=N)N)NC(=O)[C@@H](Cc2ccc3ccccc3c2)NC(=O)[C@H](CCCCNC(=S)Nc2ccc3c(c2)C(=O)OC32c3ccc(O)cc3Oc3cc(O)ccc32)NC(=O)[C@H](CCCNC(=N)N)NC(=O)[C@H](CCCNC(=N)N)NC1=O` [Cyclorasin 9A33, (Trp-Tle-ala-Arg-Arg-Lys(FITC)-nal-Arg-Fpa-lys(6-chloronicotinoyl)-Gln)] (cyclo(K(FITC)[d2Nal]R[Phe(4-F)][dK](X4)QW[Tle][dA]RR)), the Kd at K-Ras(G12V) (setting [2]) is greater than 20000 nM.
With `C[C@H]1NC(=O)[C@H](C(C)(C)C)NC(=O)[C@H](CNC(=O)c2cccc(Br)c2)NC(=O)[C@H](CCC(N)=O)NC(=O)[C@@H](CCCCN)NC(=O)[C@H](Cc2ccc(F)cc2)NC(=O)[C@H](CCCNC(=N)N)NC(=O)[C@@H](Cc2ccc3ccccc3c2)NC(=O)[C@H](CCCCNC(=S)Nc2ccc3c(c2)C(=O)OC32c3ccc(O)cc3Oc3cc(O)ccc32)NC(=O)[C@H](CCCNC(=N)N)NC(=O)[C@H](CCCNC(=N)N)NC1=O` [Cyclorasin 9A30, (Dap(3-bromobenzoyl)-Tle-ala-Arg-Arg-Lys(FITC)-nal-Arg-Fpa-lys-Gln)] (cyclo([Dap](Benzoyl(3-Br))[Tle][dA]RRK(FITC)[d2Nal]R[Phe(4-F)][dK]Q)), the Kd at K-Ras(G12V) (setting [2]) was 640 ± 70 nM.
Still for that read-out and setting: to `C[C@H]1NC(=O)[C@H](C(C)(C)C)NC(=O)[C@H](Cc2c[nH]c3ccccc23)NC(=O)[C@H](CCC(N)=O)NC(=O)[C@@H](CCCCNC(=O)c2cccc(Br)c2)NC(=O)[C@H](Cc2ccc(F)cc2)NC(=O)[C@H](CCCNC(=N)N)NC(=O)[C@@H](Cc2ccc3ccccc3c2)NC(=O)[C@H](CCCCNC(=S)Nc2ccc3c(c2)C(=O)OC32c3ccc(O)cc3Oc3cc(O)ccc32)NC(=O)[C@H](CCCNC(=N)N)NC(=O)[C@H](CCCNC(=N)N)NC1=O` [Cyclorasin 9A36, (Trp-Tle-ala-Arg-Arg-Lys(FITC)-nal-Arg-Fpa-lys(3-bromobenzoyl)-Gln)] (cyclo(K(FITC)[d2Nal]R[Phe(4-F)][dK](Benzoyl(3-Br))QW[Tle][dA]RR)) belongs greater than 20000 nM.
The molecule `CCCC[C@H]1NC(=O)[C@H](Cc2ccc(F)cc2)NC(=O)[C@H](CCCNC(=N)N)NC(=O)[C@@H](Cc2ccc3ccccc3c2)NC(=O)[C@H](CCCNC(=N)N)NC(=O)[C@H](CCCNC(=N)N)NC(=O)[C@@H](CCCNC(=N)N)NC(=O)[C@@H](C)NC(=O)[C@H](C(C)C)NC(=O)[C@H](Cc2c[nH]c3ccccc23)NC(=O)[C@H](CCC(N)=O)NC1=O` [Cyclorasin 9A18, (Trp-Val-ala-arg-Arg-Arg-nal-Arg-Fpa-nle-Gln)] (cyclo(WV[dA][dR]RR[d2Nal]R[Phe(4-F)][dNle]Q)) gave an IC50 in test [1] of 230 ± 110 nM.
Take `CC(C)[C@H]1NC(=O)[C@H](Cc2ccc(F)cc2)NC(=O)[C@H](CCCNC(=N)N)NC(=O)[C@@H](Cc2ccc3ccccc3c2)NC(=O)[C@H](CCCNC(=N)N)NC(=O)[C@H](CCCNC(=N)N)NC(=O)[C@@H](CCCNC(=N)N)NC(=O)[C@@H](C)NC(=O)[C@H]([C@@H](C)O)NC(=O)[C@H](Cc2c[nH]c3ccccc23)NC(=O)[C@H](CCC(N)=O)NC1=O` [Cyclorasin 9A11, (Trp-Thr-ala-arg-Arg-Arg-nal-Arg-Fpa-val-Gln)] (cyclo(WT[dA][dR]RR[d2Nal]R[Phe(4-F)][dV]Q)): the IC50 in test [1] amounted to 310 ± 80 nM.
Consider `CCCC[C@H]1NC(=O)[C@H](Cc2ccc(F)cc2)NC(=O)[C@H](CCCNC(=N)N)NC(=O)[C@@H](Cc2ccc3ccccc3c2)NC(=O)[C@H](CCCNC(=N)N)NC(=O)[C@H](CCCNC(=N)N)NC(=O)[C@H](CCC(=O)N[C@@H](CCCCN)C(N)=O)NC(=O)[C@@H](C)NC(=O)[C@H](C)NC(=O)[C@H](Cc2c[nH]c3ccccc23)NC(=O)[C@@H](CO)NC1=O` [Cyclorasin 9A(Thr9A), (Arg-Arg-nal-Arg-Fpa-nle-ser-Trp-Ala-ala-Gln)-Lys] (cyclo(A[dA]E([Lys-NH2])RR[d2Nal]R[Phe(4-F)][dNle][dS]W)), for which the IC50 in test [1] is greater than 10000 nM.
On the same count and under the same terms, to `CCCC[C@H]1NC(=O)[C@H](Cc2ccc(F)cc2)NC(=O)[C@H](CCCNC(=N)N)NC(=O)[C@H](Cc2ccc3ccccc3c2)NC(=O)[C@H](CCCNC(=N)N)NC(=O)[C@H](CCCNC(=N)N)NC(=O)[C@H](CCCNC(=N)N)NC(=O)[C@@H](C)NC(=O)[C@H]([C@@H](C)O)NC(=O)[C@H](Cc2c[nH]c3ccccc23)NC(=O)[C@H](CCC(N)=O)NC1=O` [Cyclorasin 9A55, (Trp-Thr-ala-Arg-Arg-Arg-Nal-Arg-Fpa-nle-Gln)] (cyclo(WT[dA]RRR[2Nal]R[Phe(4-F)][dNle]Q)) belongs 940 ± 280 nM; to `CCCC[C@H]1NC(=O)[C@H](Cc2ccc(F)cc2)NC(=O)[C@H](CCCNC(=N)N)NC(=O)[C@@H](Cc2ccc3ccccc3c2)NC(=O)[C@H](CCCNC(=N)N)NC(=O)[C@H](CCCNC(=N)N)NC(=O)[C@@H](CCCNC(=N)N)NC(=O)[C@@H](C(C)C)NC(=O)[C@H](C(C)(C)C)NC(=O)[C@H](Cc2c[nH]c3ccccc23)NC(=O)[C@H](CCC(N)=O)NC1=O` [Cyclorasin 9A53, (Trp-Tle-val-arg-Arg-Arg-nal-Arg-Fpa-nle-Gln)] (cyclo(W[Tle][dV][dR]RR[d2Nal]R[Phe(4-F)][dNle]Q)), 27 ± 11 nM; to `CCCC[C@H]1NC(=O)[C@H](Cc2ccc(Cl)cc2)NC(=O)[C@H](CCCNC(=N)N)NC(=O)[C@@H](Cc2ccc3ccccc3c2)NC(=O)[C@H](CCCNC(=N)N)NC(=O)[C@H](CCCNC(=N)N)NC(=O)[C@H](CCCNC(=N)N)NC(=O)[C@@H](C)NC(=O)[C@H]([C@@H](C)O)NC(=O)[C@H](Cc2c[nH]c3ccccc23)NC(=O)[C@H](CCC(N)=O)NC1=O` [Cyclorasin 9A42, (Trp-Thr-ala-Arg-Arg-Arg-nal-Arg-Phe(4-chloro)-nle-Gln)] (cyclo(WT[dA]RRR[d2Nal]R[Phe(4-Cl)][dNle]Q)), 130 ± 20 nM.
In turn, `CCCC[C@H]1NC(=O)[C@H](Cc2ccc(F)cc2)NC(=O)[C@H](CCCNC(=N)N)NC(=O)[C@@H](Cc2ccc3ccccc3c2)NC(=O)[C@H](CCCNC(=N)N)NC(=O)[C@H](CCCNC(=N)N)NC(=O)[C@H](CCCNC(=N)N)NC(=O)[C@@H](C)NC(=O)[C@H](C(C)(C)C)NC(=O)[C@H](Cc2c[nH]c3ccccc23)NC(=O)[C@H](CCC(N)=O)NC1=O` [Cyclorasin 9A46, (Trp-Tle-ala-Arg-Arg-Arg-nal-Arg-Fpa-nle-Gln)] (cyclo(W[Tle][dA]RRR[d2Nal]R[Phe(4-F)][dNle]Q)) returned an IC50 in test [1] of 130 ± 20 nM.

The term Kd denotes a measure of binding affinity in units of concentration. As usually defined, the IC50 is the concentration needed to halve the response being measured. Lower therefore signals higher potency.
